Assay results: EP4434982A1, “(S)-2-(2-METHYLAZETIDIN-1-YL)PYRIMIDINE DERIVATIVE AND PHARMACEUTICAL COMPOSITION COMPRISING SAME” (LG Chem, Ltd., priority 2021, dated 2023)

What follows are molecules tested against T1, Ketohexokinase (KHK) (Homo sapiens, UniProt P50053) (assay: measurement of activity in vitro of ketohexokinase inhibitor (Transcreener ADP2 TR-FRET Red Assay, ADP produced)). Conditions: KHK pre-reacted with inhibitor 30 minutes, then substrate (ATP, fructose) 15 minutes; Ki by Morrison equation.
T1 construct: His tag; made in house; host or cells: E. coli
T1 sequence (P50053 1-298): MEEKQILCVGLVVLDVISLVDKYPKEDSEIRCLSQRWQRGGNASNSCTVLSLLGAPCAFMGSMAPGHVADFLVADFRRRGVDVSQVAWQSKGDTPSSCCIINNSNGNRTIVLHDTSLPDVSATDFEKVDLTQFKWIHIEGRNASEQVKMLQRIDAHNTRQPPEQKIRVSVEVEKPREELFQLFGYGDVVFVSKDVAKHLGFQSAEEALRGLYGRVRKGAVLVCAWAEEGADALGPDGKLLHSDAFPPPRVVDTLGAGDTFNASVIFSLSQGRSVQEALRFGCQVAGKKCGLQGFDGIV
Format: biochemical
Method: Ketohexokinase (KHK) was expressed in E. Coli and purified using His tag. In order to measure the activity of the purified KHK, Transcreener ADP2 TR-FRET Red Assay kit of BellBrook Labs was used. A method of measuring the amount of ADP produced was used using TR-FRET after reacting a solution including a suitable concentration of KHK protein and ATP, and fructose for 15 minutes. In order to see the activity of a ketohexokinase (KHK) inhibitor, ketohexokinase (KHK) and a suitable concentration of an inhibitor were reacted first for 30 minutes, and then, reacted with a solution including the substrate of ketohexokinase (KHK) for 15 minutes. Then, reaction for TR-FRET was performed for 1 hour, and fluorescence was measured using Envision equipment of PerkinElmer. According to the optimization procedure of TR-FRET published by BellBrook Lab, the set value of the Envision equipment was determined.
The result values by concentration of the ketohexokinase (KHK) inhibitor were determined as the ratio of a wavelength of 665 nm and a wavelength of 615nm. The 665/615 ratio value by concentration of each inhibitor was converted to ADP concentration based on ADP standard curve, and inhibition activity Ki value was obtained using Morrison equation by statistical software (Prizm). Meanwhile, the Ki value is a value representing the binding affinity of the inhibitor and an enzyme, and a lower value means better inhibitory activity.

SMILES	Ki [nM]
CC(=O)N1CCN(C(=O)C[C@@H]2[C@@H]3C[C@H]2CN(c2nc(N4CC[C@@H]4C)nc4c2CCC4(F)F)C3)CC1 [Example 22, 1-(4-acetylpiperazin-1-yl)-2-((1R,5S,6S)-3-(7,7-difluoro-2-((S)-2-methylazetidin-1-yl)-6,7-dihydro-5H-cyclopenta[d]pyrimidin-4-yl)-3-azabicyclo[3.1.1]heptan-6-yl)ethan-1-one]	100 to 1000
C[C@H]1CCN1c1nc(-c2ccc(OCC(=O)N3CCNCC3)cc2)c2c(n1)C(F)(F)CC2 [Example 32]	10 to 100
C[C@H]1CCN1c1nc(N2C[C@H]3C[C@@H](C2)[C@@H]3CC(=O)N2CCNCC2)c2c(n1)C(F)(F)OCC2 [Example 24, 2-((1R,5S,6S)-3-(8,8-difluoro-2-((S)-2-methylazetidin-1-yl)-5,8-dihydro-6H-pyrazol[3,4-d]pyrimidin-4-yl)-3-azabicyclo[3.1.1]heptan-6-yl)-1-(piperazin-1-yl)ethan-1-one]	10 to 100
CC1CCN1c1nc(N2CC3CC(C2)C3CC(=O)N2CCNCC2)c2c(n1)C(F)(F)CCC2 [Example 23, 2-((1R,5S,6S)-3-(8,8-difluoro-2-((S)-2-methylazetidin-1-yl)-5,6,7,8-tetrahydroquinazolin-4-yl)-3-azabicyclo[3.1.1]heptan-6-yl)-1-(piperazin-1-yl)ethan-1-one]	10 to 100
Cc1c(N2CCC(OCC(=O)N3CCNCC3)CC2)nc(N2CC[C@@H]2C)nc1C(F)(F)F [Example 28]	10 to 100
C[C@H]1CCN1c1nc(-c2ccc(OCC(=O)N3CCNCC3)c(F)c2)c2c(n1)C(F)(F)CC2 [Example 33]	10 to 100
C[C@H]1CCN1c1nc(N2C[C@@H]3[C@@H](CC(=O)N4CCN(C)CC4)[C@@H]3C2)c2c(n1)C(F)(F)CC2 [Example 19, 2-((1R,5S,6R)-3-(7,7-difluoro-2-((S)-2-methylazetidin-1-yl)-6,7-dihydro-5H-cyclopenta[d]pyrimidin-4-yl)-3-azabicyclo[3.1.0]hexan-6-yl)-1-(4-methylpiperazin-1-yl)ethan-1-one]	≤ 10
C[C@H]1CCN1c1nc(N2CCN(CC(=O)N3CCNCC3)C(=O)C2)cc(C(F)(F)F)n1 [Example 12, (S)-4-(2-(2-methylazetidin-1-yl)-6-(trifluoromethyl)pyrimidin-4-yl)-1-(2-oxo-2-(piperazin-1-yl)ethyl)piperazin-2-one]	10 to 100
C[C@H]1CCN1c1nc(N2CCN(CC(=O)N3CCOCC3)CC2)c2c(n1)C(F)(F)CC2 [Example 14, (S)-2-4-(7,7-difluoro-2-(2-methylazetidin-1-yl)-6,7-dihydro-5H-cyclopenta[d]pyrimidin-1-yl)-1-(piperazin-1-yl)morpholinoethan-1-one]	10 to 100
C[C@H]1CCN1c1nc(N2CCC(OCC(=O)N3CCNCC3)CC2)cc(C(F)(F)F)n1 [Example 27]	10 to 100
C[C@H]1CCN1c1nc(N2C[C@H]3C[C@@H](C2)[C@@H]3CC(=O)N2CCNCC2)c2c(n1)C(F)(F)CC2 [Example 21, 2-((1R,5S,6S)-3-(7,7-difluoro-2-((S)-2-methylazetidin-1-yl)-6,7-dihydro-5H-cyclopenta[d]pyrimidin-4-yl)-3-azabicyclo[3.1.0]heptan-6-yl)-1-(piperazin-1-yl)ethan-1-one]	≤ 10
C[C@H]1CCN1c1nc(-c2ccc(OCC(=O)N3CCNCC3)c(Cl)c2)c2c(n1)C(F)(F)CC2 [Example 35]	≤ 10
C[C@H]1CCN1c1nc(N2CC(OCC(=O)N3CCNCC3)C2)c2c(n1)C(F)(F)CCC2 [Example 4]	10 to 100
C[C@H]1CCN1c1nc(N2CC[C@H](OCC(=O)N3CCNCC3)C2)c2c(n1)C(F)(F)CC2 [Example 7, 2-(((2S,3R)-1-(7,7-difluoro-2-((S)-2-methylazetidin-1-yl)-6,7-dihydro-5H-cyclopenta[d]pyrimidin-4-yl)pyrrolidin-3-yl)oxy)-1-(piperazin-1-yl)ethan-1-one]	≤ 10

Other lines, results leading:

Ki [nM]	SMILES
≤ 10	C[C@H]1CCN1c1nc(N2CCN(CC(=O)N3CCNCC3)CC2)cc(C(F)(F)F)n1 [Example 11, (S)-2-(4-(2-(2-methylazetidin-1-yl)-6-(trifluoromethyl)pyrimidin-4-yl)piperazin-1-yl)-1-(piperazin-1-yl)ethan-1-one]
≤ 10	C[C@H]1CCN1c1nc(-c2ccc(CC(=O)N3CCNCC3)cc2)c2c(n1)C(F)(F)CC2 [Example 30, (S)-2-(4-(7,7-difluoro-2-(2-methylazetidin-1-yl)-6,7-dihydro-5H-cyclopenta[d]pyrimidin-4-yl)phenyl)-1-(piperazin-1-yl)ethan-1-one]
≤ 10	C[C@H]1CCN1c1nc(N2CCN(CC(=O)N3CCNCC3)C(=O)C2)c2c(n1)C(F)(F)CC2 [Example 16, (S)-4-(7,7-difluoro-2-(2-methylazetidin-1-yl)-6,7-dihydro-5H-cyclopenta[d]pyrimidin-4-yl)-1-(2-oxo-2-(piperazin-1-yl)ethyl)piperazin-2-one]
≤ 10	C[C@H]1CCN1c1nc(N2CCC(OCC(=O)N3CCNCC3)CC2)c2c(n1)C(F)(F)CC2 [Example 10, (S)-2-((1-(7,7-difluoro-2-(2-methylazetidin-1-yl)-6,7-dihydro-5H-cyclopenta[d]pyrimidin-4-yl)piperidin-4-yl)oxy)-1-(piperazin-1-yl)ethan-1-one]
≤ 10	C[C@H]1CCN1c1nc(N2CC(OCC(=O)N3CCNCC3)C2)c2c(n1)C(F)(F)CC2 [Example 3, (S)-2-((1-(7,7-difluoro-2-(2-methylazetidin-1-yl)-6,7-dihydro-5H-cyclopenta[d]pyrimidin-4-yl)azetidin-3-yl)oxy)-1-(piperazin-1-yl)ethan-1-one]
≤ 10	Cc1c(-c2ccc(OCC(=O)N3CCNCC3)nc2)nc(N2CC[C@@H]2C)nc1C(F)(F)F [Example 40, (S)-2-((5-(5-methyl-2-(2-methylazetidin-1-yl)-6-(trifluoromethyl)pyrimidin-4-yl)pyridin-2-yl)oxy)-1-(piperazin-1-yl)ethan-1-one]
≤ 10	C[C@H]1CCN1c1nc(N2C[C@@H]3[C@@H](CC(=O)N4CCNC(=O)C4)[C@@H]3C2)c2c(n1)C(F)(F)CC2 [Example 20, 4-(2-((1R,5S,6R)-3-(7,7-difluoro-2-((S)-2-methylazetidin-1-yl)-6,7-dihydro-5H-cyclopenta[d]pyrimidin-4-yl)-3-azabicyclo[3.1.0]hexan-6-yl)acetyl)piperazin-2-one]
≤ 10	C[C@H]1CCN1c1nc(-c2cnc(OCC(=O)N3CCNCC3)c(Cl)c2)c2c(n1)C(F)(F)CC2 [Example 38]
≤ 10	C[C@H]1CCN1c1nc(N2CCN(CC(=O)N3CCNCC3)CC2)c2c(n1)C(F)(F)CC2 [Example 13, (S)-2-4-(7,7-difluoro-2-(2-methylazetidin-1-yl)-6,7-dihydro-5H-cyclopenta[d]pyrimidin-1-yl)-1-(piperazin-1-yl)ethan-1-one]
≤ 10	C[C@H]1CCN1c1nc(-c2ccc(OCC(=O)N3CCCNCC3)c(Cl)c2)c2c(n1)C(F)(F)CC2 [Example 36, (S)-2-(2-(chloro-4-(7,7-difluoro-2-(2-methylazetidin-1-yl)-6,7-dihydro-5H-cyclopenta[d]pyrimidin-4-yl)phenoxy)-1-(1,4-diazepan-1-yl)ethan-1-one)]
≤ 10	C[C@H]1CCN1c1nc(N2CC(OCC(=O)N3CCNCC3)C2)c(Cl)c(C(F)(F)F)n1 [Example 2, (S)-2-((1-(5-chloro-2-(2-methylazetidin-1-yl)-6-(trifluoromethyl)pyrimidin-4-yl)azetidin-3-yl)oxy)-1-(piperazin-1-yl)ethan-1-one]
≤ 10	Cc1c(N2CC(OCC(=O)N3CCNCC3)C2)nc(N2CC[C@@H]2C)nc1C(F)(F)F [Example 26, (S)-2-((1-(5-methyl-2-(2-methylazetidin-1-yl)-6-(trifluoro)pyrimidin-4-yl)azetidin-3-yl)oxy)-1-(piperazin-1-yl)ethan-1-one]
≤ 10	C[C@H]1CCN1c1nc(N2C[C@@H]3[C@H](C2)[C@H]3CS(=O)(=O)N2CCNCC2)c2c(n1)C(F)(F)CC2 [Example 25, 7,7-difluoro-2-((S)-2-methylazetidin-1-yl)-4-((1R,5S,6S)-6-((piperazin-1-ylsulfonyl)methyl)-3-azabicyclo[3.1.0]hexan-3-yl)-6,7-dihydro-5H-cyclopenta[d]pyrimidine]
≤ 10	C[C@H]1CCN1c1nc(N2C[C@@H]3[C@@H](CC(=O)N4CCNCC4)[C@@H]3C2)c2c(n1)C(F)(F)CC2 [Example 18, 2-((1R,5S,6R)-3-(7,7-difluoro-2-((S)-2-methylazetidin-1-yl)-6,7-dihydro-5H-cyclopenta[d]pyrimidin-4-yl)-3-azabicyclo[3.1.0]hexan-6-yl)-1-(piperazin-1-yl)ethan-1-one]
≤ 10	C[C@H]1CCN1c1nc(-c2cc(F)c(OCC(=O)N3CCNCC3)c(F)c2)c2c(n1)C(F)(F)CC2 [Example 34]
